{"source": "patent US10894784B2", "about": "“Heteroarylbenzimidazole compounds” (BAYER PHARMA AKTIENGESELLSCHAFT, priority 2015, dated 2021)", "data": [{"molecular_target": "TBK1 (Homo sapiens (Human), UniProt Q9UHD2)", "sequence (Q9UHD2 whole entry)": "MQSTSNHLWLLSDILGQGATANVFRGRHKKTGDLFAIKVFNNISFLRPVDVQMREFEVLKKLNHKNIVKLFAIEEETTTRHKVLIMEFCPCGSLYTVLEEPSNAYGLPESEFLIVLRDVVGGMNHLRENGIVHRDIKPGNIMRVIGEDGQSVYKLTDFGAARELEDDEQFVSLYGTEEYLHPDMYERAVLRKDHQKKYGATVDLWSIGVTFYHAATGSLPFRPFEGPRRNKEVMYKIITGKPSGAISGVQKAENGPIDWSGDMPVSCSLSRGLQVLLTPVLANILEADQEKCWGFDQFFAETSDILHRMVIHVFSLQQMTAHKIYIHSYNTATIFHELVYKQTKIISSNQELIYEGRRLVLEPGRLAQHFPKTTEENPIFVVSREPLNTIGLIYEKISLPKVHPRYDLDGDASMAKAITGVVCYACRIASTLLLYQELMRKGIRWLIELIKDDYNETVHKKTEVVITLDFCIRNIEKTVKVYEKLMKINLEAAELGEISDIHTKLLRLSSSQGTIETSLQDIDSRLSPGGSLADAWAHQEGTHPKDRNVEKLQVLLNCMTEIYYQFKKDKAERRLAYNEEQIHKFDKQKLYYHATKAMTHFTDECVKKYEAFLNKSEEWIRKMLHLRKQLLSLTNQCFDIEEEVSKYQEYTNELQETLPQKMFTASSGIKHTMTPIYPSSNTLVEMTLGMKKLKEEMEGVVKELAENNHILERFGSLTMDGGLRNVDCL", "experiment": "TBK1 low ATP kinase assay (in vitro assay 1)", "type": "biochemical", "settings": "in vitro assay 1, read-out: TBK1 low ATP kinase assay IC50", "units": {"IC50": "nM"}, "values": [{"compound": "CCNc1cc(-c2ccc3nc(Nc4cc(CN5CCN(C(=O)CC(F)(F)F)CC5)ccn4)[nH]c3c2)ncn1", "note": "[Example 149.02, 1-(4-{[2-({6-[6-(ethylamino)pyrimidin-4-yl]-1H-benzimidazol-2-yl}amino)pyridin-4-yl]methyl}piperazin-1-yl)-3,3,3-trifluoropropan-1-one]", "IC50": 2}, {"compound": "CCNc1cc(-c2ccc3nc(Nc4cc(CN5CCN(C(=O)C6CC6)CC5)ccn4)[nH]c3c2)ncn1", "note": "[Example 149.03, cyclopropyl(4-{[2-({6-[6-(ethylamino)pyrimidin-4-yl]-1H-benzimidazol-2-yl}amino)pyridin-4-yl]methyl}piperazin-1-yl)methanone]", "IC50": 2.3}, {"compound": "CNc1cc(-c2ccc3nc(Nc4cc(CN5CCN(C(=O)OC(C)(C)C)CC5)ccn4)[nH]c3c2)ncn1", "note": "[Example 150.01, tert-butyl 4-{[2-({6-[6-(methylamino)pyrimidin-4-yl]-1H-benzimidazol-2-yl}amino)pyridin-4-yl]methyl}piperazine-1-carboxylate]", "IC50": 15}, {"compound": "CNc1cc(-c2ccc3nc(Nc4cc(CN5CCN(C(=O)CC(F)(F)F)CC5)ccn4)[nH]c3c2)ncn1", "note": "[Example 150.02, 3,3,3-trifluoro-1-(4-{[2-({6-[6-(methylamino)pyrimidin-4-yl]-1H-benzimidazol-2-yl}amino)pyridin-4-yl]methyl}piperazin-1-yl)propan-1-one]", "IC50": 9.6}, {"compound": "CNc1cc(-c2ccc3nc(Nc4cc(CN5CCN(C(=O)C6CC6)CC5)ccn4)[nH]c3c2)ncn1", "note": "[Example 150.03, cyclopropyl(4-{[2-({6-[6-(methylamino)pyrimidin-4-yl]-1H-benzimidazol-2-yl}amino)pyridin-4-yl]methyl}piperazin-1-yl)methanone]", "IC50": 5.4}, {"compound": "O=C(CC(F)(F)F)N1CCN(Cc2ccnc(Nc3nc4ccc(-c5cc(NC6CC6)ncn5)cc4[nH]3)c2)CC1", "note": "[Example 151.02, 1-(4-{[2-({6-[6-(cyclopropylamino)pyrimidin-4-yl]-1H-benzimidazol-2-yl}amino)pyridin-4-yl]methyl}piperazin-1-yl)-3,3,3-trifluoropropan-1-one]", "IC50": 2.1}, {"compound": "O=C(C1CC1)N1CCN(Cc2ccnc(Nc3nc4ccc(-c5cc(NC6CC6)ncn5)cc4[nH]3)c2)CC1", "note": "[Example 151.03, cyclopropyl(4-{[2-({6-[6-(cyclopropylamino)pyrimidin-4-yl]-1H-benzimidazol-2-yl}amino)pyridin-4-yl]methyl}piperazin-1-yl)methanone]", "IC50": 1}, {"compound": "O=C(CC(F)(F)F)N1CCN(Cc2ccnc(Nc3nc4ccc(-c5cc(NC6CCC6)ncn5)cc4[nH]3)c2)CC1", "note": "[Example 152.02, 1-(4-{[2-({6-[6-(cyclobutylamino)pyrimidin-4-yl]-1H-benzimidazol-2-yl}amino)pyridin-4-yl]methyl}piperazin-1-yl)-3,3,3-trifluoropropan-1-one]", "IC50": 0.48}, {"compound": "O=C(C1CC1)N1CCN(Cc2ccnc(Nc3nc4ccc(-c5cc(NC6CCC6)ncn5)cc4[nH]3)c2)CC1", "note": "[Example 152.03, (4-{[2-({6-[6-(cyclobutylamino)pyrimidin-4-yl]-1H-benzimidazol-2-yl}amino)pyridin-4-yl]methyl}piperazin-1-yl)(cyclopropyl)methanone]", "IC50": 0.96}, {"compound": "CC(C)N(C)c1cc(-c2ccc3nc(Nc4cc(CN5CCN(C(=O)OC(C)(C)C)CC5)ccn4)[nH]c3c2)ncn1", "note": "[Example 153.01, tert-butyl 4-({2-[(6-{6-[methyl(propan-2-yl)amino]pyrimidin-4-yl}-1H-benzimidazol-2-yl)amino]pyridin-4-yl}methyl)piperazine-1-carboxylate]", "IC50": 14}, {"compound": "CC(C)N(C)c1cc(-c2ccc3nc(Nc4cc(CN5CCN(C(=O)CC(F)(F)F)CC5)ccn4)[nH]c3c2)ncn1", "note": "[Example 153.02, 3,3,3-trifluoro-1-[4-({2-[(6-{6-[methyl(propan-2-yl)amino]pyrimidin-4-yl}-1H-benzimidazol-2-yl)amino]pyridin-4-yl}methyl)piperazin-1-yl]propan-1-one]", "IC50": 5.9}, {"compound": "CC(C)N(C)c1cc(-c2ccc3nc(Nc4cc(CN5CCN(C(=O)C6CC6)CC5)ccn4)[nH]c3c2)ncn1", "note": "[Example 153.03, cyclopropyl[4-({2-[(6-{6-[methyl(propan-2-yl)amino]pyrimidin-4-yl}-1H-benzimidazol-2-yl)amino]pyridin-4-yl}methyl)piperazin-1-yl]methanone]", "IC50": 5}, {"compound": "CC(C)Nc1cc(-c2ccc3nc(Nc4cc(CN5CCN(C(=O)OC(C)(C)C)CC5)ccn4)[nH]c3c2)ncn1", "note": "[Example 154.01, tert-butyl 4-{[2-({6-[6-(propan-2-ylamino)pyrimidin-4-yl]-1H-benzimidazol-2-yl}amino)pyridin-4-yl]methyl}piperazine-1-carboxylate]", "IC50": 4.2}, {"compound": "CC(C)Nc1cc(-c2ccc3nc(Nc4cc(CN5CCN(C(=O)CC(F)(F)F)CC5)ccn4)[nH]c3c2)ncn1", "note": "[Example 154.02, 3,3,3-trifluoro-1-(4-{[2-({6-[6-(propan-2-ylamino)pyrimidin-4-yl]-1H-benzimidazol-2-yl}amino)pyridin-4-yl]methyl}piperazin-1-yl)propan-1-one]", "IC50": 3.3}, {"compound": "CC(C)Nc1cc(-c2ccc3nc(Nc4cc(CN5CCN(C(=O)C6CC6)CC5)ccn4)[nH]c3c2)ncn1", "note": "[Example 154.03, cyclopropyl(4-{[2-({6-[6-(propan-2-ylamino)pyrimidin-4-yl]-1H-benzimidazol-2-yl}amino)pyridin-4-yl]methyl}piperazin-1-yl)methanone]", "IC50": 1.4}, {"compound": "CCN(CC)c1cc(-c2ccc3nc(Nc4cc(CN5CCN(C(=O)OC(C)(C)C)CC5)ccn4)[nH]c3c2)ncn1", "note": "[Example 155.01, tert-butyl 4-{[2-({6-[6-(diethylamino)pyrimidin-4-yl]-1H-benzimidazol-2-yl}amino)pyridin-4-yl]methyl}piperazine-1-carboxylate]", "IC50": 36}, {"compound": "CCN(CC)c1cc(-c2ccc3nc(Nc4cc(CN5CCN(C(=O)CC(F)(F)F)CC5)ccn4)[nH]c3c2)ncn1", "note": "[Example 155.02, 1-(4-{[2-({6-[6-(diethylamino)pyrimidin-4-yl]-1H-benzimidazol-2-yl}amino)pyridin-4-yl]methyl}piperazin-1-yl)-3,3,3-trifluoropropan-1-one]", "IC50": 15}, {"compound": "CCN(CC)c1cc(-c2ccc3nc(Nc4cc(CN5CCN(C(=O)C6CC6)CC5)ccn4)[nH]c3c2)ncn1", "note": "[Example 155.03, cyclopropyl(4-{[2-({6-[6-(diethylamino)pyrimidin-4-yl]-1H-benzimidazol-2-yl}amino)pyridin-4-yl]methyl}piperazin-1-yl)methanone]", "IC50": 17}, {"compound": "CN(c1cc(-c2ccc3nc(Nc4cc(CN5CCN(C(=O)OC(C)(C)C)CC5)ccn4)[nH]c3c2)ncn1)C1CCC1", "note": "[Example 156.01, tert-butyl 4-({2-[(6-{6-[cyclobutyl(methyl)amino]pyrimidin-4-yl}-1H-benzimidazol-2-yl)amino]pyridin-4-yl}methyl)piperazine-1-carboxylate]", "IC50": 38}, {"compound": "CN(c1cc(-c2ccc3nc(Nc4cc(CN5CCN(C(=O)CC(F)(F)F)CC5)ccn4)[nH]c3c2)ncn1)C1CCC1", "note": "[Example 156.02, 1-[4-({2-[(6-{6-[cyclobutyl(methyl)amino]pyrimidin-4-yl}-1H-benzimidazol-2-yl)amino]pyridin-4-yl}methyl)piperazin-1-yl]-3,3,3-trifluoropropan-1-one]", "IC50": 9.3}, {"compound": "CN(c1cc(-c2ccc3nc(Nc4cc(CN5CCN(C(=O)C6CC6)CC5)ccn4)[nH]c3c2)ncn1)C1CCC1", "note": "[Example 156.03, [4-({2-[(6-{6-[cyclobutyl(methyl)amino]pyrimidin-4-yl}-1H-benzimidazol-2-yl)amino]pyridin-4-yl}methyl)piperazin-1-yl](cyclopropyl)methanone]", "IC50": 19}, {"compound": "CN(c1cc(-c2ccc3nc(Nc4cc(CN5CCN(C(=O)OC(C)(C)C)CC5)ccn4)[nH]c3c2)ncn1)C1CC1", "note": "[Example 157.01, tert-butyl 4-({2-[(6-{6-[cyclopropyl(methyl)amino]pyrimidin-4-yl}-1H-benzimidazol-2-yl)amino]pyridin-4-yl}methyl)piperazine-1-carboxylate]", "IC50": 25}, {"compound": "CN(c1cc(-c2ccc3nc(Nc4cc(CN5CCN(C(=O)CC(F)(F)F)CC5)ccn4)[nH]c3c2)ncn1)C1CC1", "note": "[Example 157.02, 1-[4-({2-[(6-{6-[cyclopropyl(methyl)amino]pyrimidin-4-yl}-1H-benzimidazol-2-yl)amino]pyridin-4-yl}methyl)piperazin-1-yl]-3,3,3-trifluoropropan-1-one]", "IC50": 8.9}, {"compound": "CN(c1cc(-c2ccc3nc(Nc4cc(CN5CCN(C(=O)C6CC6)CC5)ccn4)[nH]c3c2)ncn1)C1CC1", "note": "[Example 157.03, cyclopropyl[4-({2-[(6-{6-[cyclopropyl(methyl)amino]pyrimidin-4-yl}-1H-benzimidazol-2-yl)amino]pyridin-4-yl}methyl)piperazin-1-yl]methanone]", "IC50": 7.6}, {"compound": "CC(C)(C)OC(=O)N1CCN(Cc2ccnc(Nc3nc4ccc(-c5cc(OCC6(C(F)(F)F)CC6)ncn5)cc4[nH]3)c2)CC1", "note": "[Example 158.01, tert-butyl 4-[(2-{[6-(6-{[1-(trifluoromethyl)cyclopropyl]methoxy}pyrimidin-4-yl)-1H-benzimidazol-2-yl]amino}pyridin-4-yl)methyl]piperazine-1-carboxylate]", "IC50": 160}, {"compound": "O=C(CC(F)(F)F)N1CCN(Cc2ccnc(Nc3nc4ccc(-c5cc(OCC6(C(F)(F)F)CC6)ncn5)cc4[nH]3)c2)CC1", "note": "[Example 158.02, 3,3,3-trifluoro-1-{4-[(2-{[6-(6-{[1-(trifluoromethyl)cyclopropyl]methoxy}pyrimidin-4-yl)-1H-benzimidazol-2-yl]amino}pyridin-4-yl)methyl]piperazin-1-yl}propan-1-one]", "IC50": 21}, {"compound": "O=C(C1CC1)N1CCN(Cc2ccnc(Nc3nc4ccc(-c5cc(OCC6(C(F)(F)F)CC6)ncn5)cc4[nH]3)c2)CC1", "note": "[Example 158.03, cyclopropyl{4-[(2-{[6-(6-{[1-(trifluoromethyl)cyclopropyl]methoxy}pyrimidin-4-yl)-1H-benzimidazol-2-yl]amino}pyridin-4-yl)methyl]piperazin-1-yl}methanone]", "IC50": 13}, {"compound": "CC(C)(C)OC(=O)N1CCN(Cc2ccnc(Nc3nc4ccc(-c5cc(OCC6CCC6)ncn5)cc4[nH]3)c2)CC1", "note": "[Example 159.01, tert-butyl 4-{[2-({6-[6-(cyclobutylmethoxy)pyrimidin-4-yl]-1H-benzimidazol-2-yl}amino)pyridin-4-yl]methyl}piperazine-1-carboxylate]", "IC50": 310}]}]}
